Data as given in patent US9695155B2, “Herbicidal substituted pyrimidinyloxy benzene compounds” (E. I. DU PONT DE NEMOURS AND COMPANY, priority 2013, dated 2017).

Experiments:
barnyardgrass [1] = test: Test A preemergence; type: in vivo, Echinochloa crus-galli
In short: (§1)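 Visual injury scored 0–100 (100 = complete control) against untreated controls about 10 days after treatment in a greenhouse. Test chemicals, formulated with surfactant in non-phytotoxic solvent, were sprayed on soil preemergence or on 2-10 cm, one- to two-leaf plants postemergence.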

large (Lg) crabgrass [2] = test: Test A preemergence; type: in vivo, Digitaria sanguinalis
In short: as §1

giant foxtail [3] = test: Test A preemergence; type: in vivo, Setaria faberii
In short: as §1

morningglory [4] = test: Test A preemergence; type: in vivo, Ipomoea spp.
In short: as §1

pigweed [5] = test: Test A preemergence; type: in vivo, Amaranthus retroflexus
In short: as §1

velvetleaf [6] = test: Test A preemergence; type: in vivo, Abutilon theophrasti
In short: as §1

wheat [7] = test: Test A preemergence; type: in vivo, Triticum aestivum
In short: as §1

corn [8] = test: Test A preemergence; type: in vivo, Zea mays
In short: as §1

barnyardgrass [9] = test: Test A postemergence; type: in vivo, Echinochloa crus-galli
In short: as §1

large (Lg) crabgrass [10] = test: Test A postemergence; type: in vivo, Digitaria sanguinalis
In short: as §1

giant foxtail [11] = test: Test A postemergence; type: in vivo, Setaria faberii
In short: as §1

morningglory [12] = test: Test A postemergence; type: in vivo, Ipomoea spp.
In short: as §1

pigweed [13] = test: Test A postemergence; type: in vivo, Amaranthus retroflexus
In short: as §1

velvetleaf [14] = test: Test A postemergence; type: in vivo, Abutilon theophrasti
In short: as §1

wheat [15] = test: Test A postemergence; type: in vivo, Triticum aestivum
In short: as §1

corn [16] = test: Test A postemergence; type: in vivo, Zea mays
In short: as §1

rice [17] = test: Test B flooded paddy test; type: in vivo, Oryza sativa; conditions: Flood, 250 g ai/ha; 0 to 100 scale where 0 is no effect and 100 is complete control
In short: (§2)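 Post-emergence paddy-water application at the 2-leaf stage, with 3 cm flood kept for the whole test. Response was judged visually relative to controls after 13 to 15 greenhouse days, 0 indicating no effect and 100 complete control.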

sedge, umbrella [18] = test: Test B flooded paddy test; type: in vivo, Cyperus difformis; conditions: Flood, 250 g ai/ha; 0 to 100 scale where 0 is no effect and 100 is complete control
In short: as §2

Heteranthera limosa = test: Test B flooded paddy test; type: in vivo; conditions: Flood, 250 g ai/ha; 0 to 100 scale where 0 is no effect and 100 is complete control
In short: as §2

barnyardgrass [19] = test: Test B flooded paddy test; type: in vivo, Echinochloa crus-galli; conditions: Flood, 250 g ai/ha; 0 to 100 scale where 0 is no effect and 100 is complete control
In short: as §2

rice [20] = test: Test C flooded paddy test; type: in vivo, Oryza sativa; conditions: Flood, scale 0 to 100 (0 no effect, 100 complete control), 13 to 15 days
Text: (§3) At time of treatment, test pots were flooded to 3 cm above the soil surface, treated by application of test compounds directly to the paddy water, and then maintained at that water depth for the duration of the test. Treated plants and controls were maintained in a greenhouse for 13 to 15 days, after which time all species were compared to controls and visually evaluated. […] A dash (-) response means no test result.

sedge, umbrella [21] = test: Test C flooded paddy test; type: in vivo, Cyperus difformis; conditions: Flood, scale 0 to 100 (0 no effect, 100 complete control), 13 to 15 days
Text: as §3

ducksalad = test: Test C flooded paddy test; type: in vivo, Heteranthera limosa; conditions: Flood, scale 0 to 100 (0 no effect, 100 complete control), 13 to 15 days
Text: as §3

barnyardgrass [22] = test: Test C flooded paddy test; type: in vivo, Echinochloa crus-galli; conditions: Flood, scale 0 to 100 (0 no effect, 100 complete control), 13 to 15 days
Text: as §3

[23] = 125 g ai/ha, 0 to 100 scale where 0 is no effect and 100 is complete control
[24] = 500 g ai/ha, 0 to 100 scale, 0 no effect, 100 complete control, approx. 10 days
[25] = 500 g ai/ha, 0 to 100 scale, 0 no effect, 100 complete control

Brc1cnc(Oc2ccccc2-n2cc(Br)cn2)nc1 [Compound 8]
Barnyardgrass plant response rating (barnyardgrass [1]; [23]): 50
Barnyardgrass plant response rating (barnyardgrass [1]; [24]): 90
Crabgrass, Large plant response rating (large (Lg) crabgrass [2]; [23]): 80
Crabgrass, Large plant response rating (large (Lg) crabgrass [2]; [24]): 100
Foxtail, Giant plant response rating (giant foxtail [3]; [23]): 70
Foxtail, Giant plant response rating (giant foxtail [3]; [24]): 100
Morningglory plant response rating (morningglory [4]; [23]): 20
Morningglory plant response rating (morningglory [4]; [24]): 30
Pigweed plant response rating (pigweed [5]; [23]): 90
Pigweed plant response rating (pigweed [5]; [24]): 100
Velvetleaf plant response rating (velvetleaf [6]; [23]): 100
Velvetleaf plant response rating (velvetleaf [6]; [24]): 100
Wheat plant response rating (wheat [7]; [23]): 0
Wheat plant response rating (wheat [7]; [24]): 0
Corn plant response rating (corn [8]; [23]): 0
Corn plant response rating (corn [8]; [24]): 0
Plant response rating, Barnyardgrass (barnyardgrass [9]; [23]): 30
Plant response rating, Barnyardgrass (barnyardgrass [9]; [25]): 90
Plant response rating, Crabgrass, Large (large (Lg) crabgrass [10]; [23]): 50
Plant response rating, Crabgrass, Large (large (Lg) crabgrass [10]; [25]): 90
Plant response rating, Foxtail, Giant (giant foxtail [11]; [23]): 50
Plant response rating, Foxtail, Giant (giant foxtail [11]; [25]): 90
Plant response rating, Morningglory (morningglory [12]; [23]): 70
Plant response rating, Morningglory (morningglory [12]; [25]): 100
Plant response rating, Pigweed (pigweed [13]; [23]): 100
Plant response rating, Pigweed (pigweed [13]; [25]): 100
Plant response rating, Velvetleaf (velvetleaf [14]; [23]): 100
Plant response rating, Velvetleaf (velvetleaf [14]; [25]): 100
Plant response rating, Wheat (wheat [15]; [23]): 0
Plant response rating, Wheat (wheat [15]; [25]): 20
Plant response rating, Corn (corn [16]; [23]): 0
Plant response rating, Corn (corn [16]; [25]): 30
Plant response rating, Rice (rice [17]): 30
Plant response rating, Sedge, Umbrella (sedge, umbrella [18]): 80
Plant response rating, Ducksalad (Heteranthera limosa): 100
Plant response rating, Barnyardgrass (barnyardgrass [19]): 0
Plant response rating, Rice (rice [20]; 31 g ai/ha): 0
Plant response rating, Rice (rice [20]; 62 g ai/ha): 0
Plant response rating, Rice (rice [20]; 125 g ai/ha): 10
Plant response rating, Rice (rice [20]; 250 g ai/ha): 10
Plant response rating, Sedge, Umbrella (sedge, umbrella [21]; 31 g ai/ha): 0
Plant response rating, Sedge, Umbrella (sedge, umbrella [21]; 62 g ai/ha): 50
Plant response rating, Sedge, Umbrella (sedge, umbrella [21]; 125 g ai/ha): 75
Plant response rating, Sedge, Umbrella (sedge, umbrella [21]; 250 g ai/ha): 85
Plant response rating, Ducksalad (ducksalad; 31 g ai/ha): 0
Plant response rating, Ducksalad (ducksalad; 62 g ai/ha): 40
Plant response rating, Ducksalad (ducksalad; 125 g ai/ha): 50
Plant response rating, Ducksalad (ducksalad; 250 g ai/ha): 70
Plant response rating, Barnyardgrass (barnyardgrass [22]; 31 g ai/ha): 0
Plant response rating, Barnyardgrass (barnyardgrass [22]; 62 g ai/ha): 0
Plant response rating, Barnyardgrass (barnyardgrass [22]; 125 g ai/ha): 0
Plant response rating, Barnyardgrass (barnyardgrass [22]; 250 g ai/ha): 0
